From ChEMBL document CHEMBL3779873, “Rubrolide analogues and their derived lactams as potential anticancer agents” (Medchemcomm, 2016) come the findings set out here.

Molecules are shown by their SMILES. Converted amounts (≈) assume the structure as drawn.

Experiment [1] in a line: Cytotoxicity against human SF295 cells after 72 hrs by MTT assay. The format is functional, SF-295.
Experiment [2] in a line: Cytotoxicity against human HCT116 cells assessed as reduction in cell viability at 25 ug/mL after 72 hrs by MTT assay. The format is functional, HCT-116.
The nature of experiment [3]: Cytotoxicity against human OVCAR8 cells assessed as reduction in cell viability at 25 ug/mL after 72 hrs by MTT assay. Format: functional, OVCAR-8.
Experiment [4] can be described thus: Cytotoxicity against human SF295 cells assessed as reduction in cell viability at 25 ug/mL after 72 hrs by MTT assay. Format: functional, SF-295.
Experiment [5] is described as follows: Cytotoxicity against human HCT116 cells after 72 hrs by MTT assay. The format is functional, HCT-116.
The nature of experiment [6]: Cytotoxicity against human OVCAR8 cells after 72 hrs by MTT assay. Format: functional, OVCAR-8.
Experiment [7] is described as follows: Cytotoxicity against human HL60 cells after 72 hrs by MTT assay. Format: functional, HL-60.
The test system of a further experiment is HT-29. The experiment is described as follows: Cytotoxicity against human HT-29 cells. The format is functional. The following applies: read-out: ED50 (the source's name).

`O=C1O/C(=C\c2ccc([N+](=O)[O-])cc2)C(Cl)=C1Cl`: the RC50 in experiment [1] stood at 29.37 µM; in experiment [5], 22.76 µM; in experiment [6], 9.51 µM; in experiment [7], 8.98 µM. Moreover, the Activity in experiment [2] stood at 93.05%; in experiment [3] it was 98.2%; in experiment [4], 84.12%.

Regarding `COc1ccc(Br)cc1C1=C(Br)C(=O)N(CC(C)C)/C1=C/c1cccc(Cl)c1`, the RC50 in experiment [1] turned out to be 8.03 µM; in experiment [5], 5.52 µM; in experiment [6] it was 4.18 µM; in experiment [7], 3.46 µM. For the same molecule, the Activity in experiment [2] was found to be 93.44%; in experiment [3] it was 93.39%; in experiment [4] it was 90.65%.

Regarding `O=C1O/C(=C\c2ccc(O)c(Br)c2)C(c2ccc(O)cc2)=C1Cl`, the EC50 with HT-29 was 1.2 µg/mL (≈ 3.05 µM).

For the molecule `O=C1O/C(=C\c2ccccc2Br)C(Cl)=C1Cl`, the RC50 in experiment [1] is 32.64 µM; in experiment [5], 32.22 µM; in experiment [6], 11.64 µM; in experiment [7] it was 10.01 µM. The Activity in experiment [2] was determined as 97.58%; in experiment [3] it was 93.14%; in experiment [4], 92.81%.

As for `O=C1O/C(=C\c2ccc(O)c(Br)c2)C(c2ccc(O)c(Br)c2)=C1Cl`, the EC50 with HT-29 came out at 1.2 µg/mL (≈ 2.54 µM).

With `COc1ccc(Cl)cc1C1=C(Br)C(=O)O/C1=C\c1ccc(C(F)(F)F)cc1`, the RC50 in experiment [1] turned out to be 14.12 µM; in experiment [5], 12.66 µM; in experiment [6], 7.51 µM; in experiment [7], 5.5 µM. Besides, the Activity in experiment [2] is recorded as 91.81%; in experiment [3], 96.84%; in experiment [4], 80.1%.

Regarding `COc1ccc(Br)cc1-c1c(Cc2ccccc2Cl)n[nH]c(=O)c1Br`, the values for the Activity in experiment [2], in experiment [3] and in experiment [4] were 38.1%, 27.93% and 47.29%, respectively.

Turning to `COc1ccc(Br)cc1C1=C(Br)C(=O)O/C1=C\c1ccc(F)cc1`, the RC50 turned out to be 15.44 µM in experiment [1], 13.06 µM in experiment [5], 5.17 µM in experiment [6] and 9.8 µM in experiment [7]. For the same molecule, the Activity in experiment [2] is listed as 94.87%; in experiment [3] it was 94.68%; in experiment [4], 82.06%.

In the case of `COc1cccc(/C=C2\C(c3cc(Cl)ccc3OC)=C(Br)C(=O)N2CC(C)C)c1`, the values for the Activity in experiment [2], in experiment [3] and in experiment [4] were 75.51%, 55.28% and 79.36%, respectively.
